Measured values published in patent US20100267712A1, “ISOINDOLINE COMPOUNDS FOR THE TREATMENT OF SPINAL MUSCULAR ATROPHY AND OTHER USES” (The United States of America, as represented by the …, priority 2007, published 2010).
Where a name gives a salt, the structure may show the parent alone.

Assays:
[1] = system: SMN2-linked luciferase-reporter gene construct; experiment: SMN Splice Reporter Assay (SMN2-linked luciferase reporter); format: cell-based; settings: for EC50: cervical carcinoma cell lines, SMN2 splice luciferase reporter; for Fold Increase: fold-increase of luciferase over baseline reading of transformed cells without any test compound
Procedure, shortened: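 Cervical carcinoma cells carrying an SMN2-luciferase splicing reporter, in-frame only with exon 7 inclusion, were treated with compound. Luciferase activity reported as fold increase over untreated transformed cells, with EC50 derived.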

[2] = system: translational stop codon read-through, human SMN2 open reading frame-luciferase; experiment: Translational read-through luciferase reporter assay (luciferase preceded by the open reading frame of the human SMN2 gene); format: cell-based
From the text: This assay was similar in design to that described in WO 01/44516 A2. This was a cell-based luciferase reporter assay designed to detect translational read-through via insertion of a translational stop codon within the coding sequence that includes luciferase. In the presence of compounds that promote read-through of translational stop codons, active luciferase was produced and detected via chemiluminescence. Compounds of the invention typically were active in three versions of this assay: luciferase reporter containing a UGA stop codon, luciferase reporter containing a UAG stop codon, which is the first stop codon downstream of the improper splice junction between exons 6 and 8 in the human SMN2 transcript, and luciferase preceded by the open reading frame of the human SMN2 gene.

| SMILES | melting point | EC50 [1] [nM] | EC50 [2] [nM] | Fold Increase [1] | maximal fold induction [2] |
| --- | --- | --- | --- | --- | --- |
| Cn1ccc2cc(N3Cc4ccc(OC(F)(F)C(F)Cl)cc4C3=O)ccc21 (centres unmarked) [Example 4, 6-(2-chloro-1,1,2-trifluoroethoxy)-2-(1-methyl-1H-indol-5-yl)isoindolin-1-one] | 200 to 205 °C |  |  |  |  |
| Cn1ccc2cc(N3Cc4ccc(O)cc4C3=O)ccc21 [Example 5, 6-hydroxy-2-(1-methyl-1H-indol-5-yl)isoindolin-1-one] | 230 to 235 °C |  |  |  |  |
| CC(=O)Nc1ccc2c(c1)C(=O)N(c1ccc3c(ccn3C)c1)C2 [Example 8, N-(2-(1-methyl-1H-indol-5-yl)-3-oxoisoindolin-5-yl)acetamide] | 275 to 280 °C |  |  |  |  |
| Cn1ccc2cc(N3Cc4c(N)cccc4C3=O)ccc21 [Example 9, 4-amino-2-(1-methyl-1H-indol-5-yl)isoindolin-1-one] | 198 to 203 °C |  |  |  |  |
| CC(=O)Nc1cccc2c1CN(c1ccc3c(ccn3C)c1)C2=O [Example 10, N-(2-(1-methyl-1H-indol-5-yl)-1-oxoisoindolin-4-yl)acetamide] | 239 to 243 °C |  |  |  |  |
| CC(C)Cc1ccc2c(c1)C(=O)N(c1ccc3c(ccn3C)c1)C2 [Example 12, 6-isobutyl-2-(1-methyl-1H-indol-5-yl)isoindolin-1-one] | 193 to 194 °C |  |  |  |  |
| CCCCc1ccc2c(c1)C(=O)N(c1ccc3c(ccn3C)c1)C2 [Example 13, 6-butyl-2-(1-methyl-1H-indol-5-yl)isoindolin-1-one] | 167 to 168 °C |  |  |  |  |
| C/C=C(/C)c1ccc2c(c1)C(=O)N(c1ccc3c(ccn3C)c1)C2 [Example 14, (Z)-6-(but-2-en-2-yl)-2-(1-methyl-1H-indol-5-yl)isoindolin-1-one] | 144 to 145 °C |  |  |  |  |
| CCC(C)c1ccc2c(c1)C(=O)N(c1ccc3c(ccn3C)c1)C2 (centres unmarked) [Example 15, 6-sec-butyl-2-(1-methyl-1H-indol-5-yl)isoindolin-1-one] | 146 to 147 °C |  |  |  |  |
| Cn1ccc2cc(N3Cc4ccc(N5CCCC5)cc4C3=O)ccc21 [Example 16, 2-(1-methyl-1H-indol-5-yl)-6-(pyrrolidin-1-yl)isoindolin-1-one] | 252 to 253 °C |  |  |  |  |
| O=C1c2ccccc2CN1c1ccc2c(c1)OCCO2 [Example 116069] |  | 95 | 2440 | 1.348 | 1.97 |
| Cn1ccc2cc(N3Cc4cc5c(cc4C3=O)OCCO5)ccc21 [Example 118275] |  | 14 | 2090 | 1.484 | 1.28 |
| CC(C)n1ccc2cc(N3Cc4ccc(OC(F)F)cc4C3=O)ccc21 [Example 121259] |  |  | 32 | 1.166 | 1.03 |
| CC(=O)Nc1ccc2c(c1)C(=O)N(c1ccc3c(ccn3C)c1)C2 [Example 122435] |  | 143 | 1290 | 1.412 | 1.98 |
| Cc1cc2cc(N3Cc4ccc(N5CCCC5)cc4C3=O)ccc2n1C [Example 123330] |  |  |  | 1.113 | 1.4 |
| CC(C)n1ccc2cc(N3Cc4ccc(Cl)cc4C3=O)ccc21 [Example 125094] |  | 9 |  | 1.256 | 1.16 |
| CC(C)n1ccc2cc(N3Cc4ccc(Br)cc4C3=O)ccc21 [Example 125270] |  | 16 |  | 1.446 | 1.19 |
| Cc1cc2cc(N3Cc4ccc(N(C)C)cc4C3=O)ccc2n1C(C)C [Example 125602] |  |  |  | 1.139 |  |
| Cc1cc2cc(N3Cc4ccc(N5CCCC5)cc4C3=O)ccc2n1C(C)C [Example 125603] |  |  |  | 0.995 |  |
| CC(=O)Nc1ccc2c(c1)C(=O)N(c1ccc3c(c1)cc(C)n3C(C)C)C2 [Example 125822] |  |  |  | 1.329 |  |
| CC(=O)Nc1ccc2c(c1)C(=O)N(c1ccc3c(ccn3C(C)C)c1)C2 [Example 126111] |  | 63 |  | 1.34 |  |

Second part, led by results:

| melting point | EC50 [1] [nM] | EC50 [2] [nM] | SMILES | Fold Increase [1] | maximal fold induction [2] |
| --- | --- | --- | --- | --- | --- |
| 175 to 177 °C |  |  | COc1ccc2c(c1)C(=O)N(c1ccc3cnn(C)c3c1)C2 |  |  |
| 280 to 282 °C (dec.) |  |  | COc1ccc2c(c1)C(=O)N(c1ccc3ccn(CCN)c3c1)C2 (as salt: hydrochloride) [Example 23, 2-(1-(2-aminoethyl)-1H-indol-6-yl)-6-methoxyisoindolin-1-one hydrochloride] |  |  |
| 193 to 197 °C |  |  | COc1ccc2c(c1)C(=O)N(c1ccc3c(ccn3C)c1)C2 [Example 1, 6-methoxy-2-(1-methyl-1H-indol-5-yl)isoindolin-1-one] |  |  |
| 180 to 182 °C |  |  | Cn1ccc2cc(N3Cc4ccc(OC(F)F)cc4C3=O)ccc21 [Example 2, 6-(difluoromethoxy)-2-(1-methyl-1H-indol-5-yl)isoindolin-1-one] |  |  |
| 185 to 186 °C |  |  | Cn1ccc2cc(N3Cc4ccc(OC(F)(F)Br)cc4C3=O)ccc21 [Example 3, 6-(bromodifluoromethoxy)-2-(1-methyl-1H-indol-5-yl)isoindolinl-one] |  |  |
| 185 to 190 °C |  |  | CCOc1ccc2c(c1)C(=O)N(c1ccc3c(ccn3C)c1)C2 [Example 6, 6-ethoxy-2-(1-methyl-1H-indol-5-yl)isoindolin-1-one] |  |  |
| 182 to 188 °C |  |  | Cn1ccc2cc(N3Cc4ccc(OCC(F)(F)F)cc4C3=O)ccc21 [Example 7, 2-(1-methyl-1H-indol-5-yl)-6-(2,2,2-trifluoroethoxy)isoindolin-1-one] |  |  |
| 235 to 237 °C |  |  | Cn1ccc2cc(N3Cc4ccc(Br)cc4C3=O)ccc21 [Example 11, 6-bromo-2-(1-methyl-1H-indol-5-yl)isoindolin-1-one] |  |  |
| 144 to 148 °C |  |  | COc1ccc2c(c1)C(=O)N(c1ccc3c(ccn3C(C)C)c1)C2 [Example 17, 2-(1-isopropyl-1H-indol-5-yl)-6-methoxyisoindolin-1-one] |  |  |
|  | 20 | 421 | COc1ccc2c(c1)C(=O)N(c1ccc3c(c1)OCCO3)C2 [Example 116239] | 1.228 | 2.02 |
|  | 9 | 4180 | COc1ccc2c(c1)C(=O)N(c1ccc3c(c1)OC(C)(C)O3)C2 [Example 116566] | 1.308 | 1.36 |
|  | 22 | 220 | COc1ccc2c(c1)C(=O)N(c1ccc3ccoc3c1)C2 [Example 118740] | 1.388 | 1.67 |
|  | 71 | 2800 | COc1ccc2c(c1)C(=O)N(c1ccc3c(ccn3C(C)C)c1)C2 [Example 119518] | 1.617 | 1.2 |
|  | 96 | 2960 | Cn1ccc2cc(N3Cc4ccc(Br)cc4C3=O)ccc21 [Example 119521] | 1.491 | 1.56 |
|  | 59 | 6030 | COCn1ccc2cc(N3Cc4ccc(OC)cc4C3=O)ccc21 [Example 119658] | 1.42 | 1.19 |
|  | 68 | 752 | COCCn1ccc2cc(N3Cc4ccc(OC)cc4C3=O)ccc21 [Example 119659] | 1.405 | 1.38 |
|  | 117 | 676 | COc1ccc2c(c1)C(=O)N(c1ccc3c(c1)N(C)CCO3)C2 [Example 119867] | 1.495 | 2.04 |
|  | 2060 | 19400 | COc1cc2c(cc1OC)C(=O)N(c1ccc3ccn(C)c3c1)C2 [Example 120594] | 1.561 | 2.08 |
|  | 61 | 1890 | Cn1ccc2cc(N3Cc4ccc(Cl)cc4C3=O)ccc21 [Example 120599] | 1.407 | 1.88 |
|  | 59 | 4890 | COc1ccc2c(c1)C(=O)N(c1ccc3c(cnn3C)c1)C2 [Example 120600] | 1.312 | 1.83 |
|  |  | 15600 | COc1ccc2c(c1)C(=O)N(c1ccc3[nH]ncc3c1)C2 [Example 120601] | 1.059 | 1.65 |
|  | 415 | 7910 | COc1ccc2c(c1)C(=O)N(c1ccc3cnn(C)c3c1)C2 [Example 120604] | 1.441 | 1.65 |
|  | 70 | 641 | COc1ccc2c(c1)C(=O)N(c1ccc3nccnc3c1)C2 [Example 120791] | 1.372 | 1.91 |
|  | 1590 | 14100 | COc1ccc2c(c1)C(=O)N(c1ccc3nccn3c1)C2 [Example 120955] | 1.265 | 1.66 |
|  | 1360 | 2650 | COc1ccc2c(c1)C(=O)N(c1ccc3nc(C)ncc3c1)C2 [Example 121924] | 1.489 | 1.66 |
|  | 24 | 667 | COc1ccc2c(c1)C(=O)N(c1ccc3sc(C)cc3c1)C2 [Example 122685] | 1.251 | 1.87 |
|  | 207 | 12800 | Cc1cc2cc(N3Cc4ccc(Br)cc4C3=O)ccc2n1C [Example 122818] | 1.551 | 1.81 |
|  | 63 | 97700 | Cc1cc2cc(N3Cc4ccc(OC(C)C)cc4C3=O)ccc2n1C [Example 123934] | 1.554 | 1.3 |
